Data from the OPERA property sets (Mansouri et al. 2018).

Conditions: for log10 BCF / log10 biotransformation half-life (days): fish

COc1ccc2c(=O)c3ccccc3oc2c1CN1CCCCC1
melting point: 160 °C

CCC(C)C=O (stereo not drawn)
melting point: 91 °C

Oc1ccc(C(c2ccc(O)cc2)(C(F)(F)F)C(F)(F)F)cc1
melting point: 162 °C

CCCCc1cccc2ccccc12
boiling point: 289 °C | melting point: -19.8 °C

Cc1ccc(OP(=O)(Oc2ccc(C)c(C)c2)Oc2ccc(C)c(C)c2)cc1C
melting point: 72 °C

C=CCOC(Cn1ccnc1)c1ccc(Cl)cc1Cl (stereo not drawn)
boiling point: 347 °C | log10 Koc (L/kg): 3.73 | log10 vapour pressure (mmHg): -5.92 | melting point: 52.7 °C

ClC(Cl)=C(c1ccc(Cl)cc1)c1ccc(Cl)cc1
boiling point: 336 °C | log10 Henry constant (atm·m³/mol): -4.38 | log10 Koa: 9.68 | log10 Koc (L/kg): 4.82 | log10 vapour pressure (mmHg): -5.22 | melting point: 89 °C | log10 BCF: 4.08 | log10 biotransformation half-life (days): 1.71

O=C(O)CCSCCC(=O)O
melting point: 129 °C | ready biodegradability: readily biodegradable

FC(F)(F)c1ccc(Cl)c(Cl)c1
boiling point: 174 °C | log10 vapour pressure (mmHg): 0.372 | melting point: -12.5 °C | log10 BCF: 3.18 | log10 biotransformation half-life (days): 1.52

C=CC(F)(F)C(F)(F)C(F)(F)C(F)(F)C(F)(F)C(F)(F)C(F)(F)C(F)(F)F
boiling point: 150 °C

Cc1cccc(F)c1
boiling point: 115 °C | log10 vapour pressure (mmHg): 1.34 | melting point: -87 °C

N#Cc1ccccc1CCl
boiling point: 252 °C | melting point: 61 °C

NCCNCCNCCN
boiling point: 266 °C | melting point: 12 °C | ready biodegradability: not readily biodegradable

c1csc(-c2cccs2)c1
boiling point: 260 °C | melting point: 33 °C

CCCCCCN1CC(C(=O)OC)CC1=O (stereo not drawn)
melting point: 4 °C

CS(=O)(=O)CCCN=C=S
melting point: 47.5 °C

O=C1CC(c2ccccc2)Oc2ccccc21 (stereo not drawn)
melting point: 77 °C

CC1CCCCC1=O (stereo not drawn)
boiling point: 162 °C | log10 vapour pressure (mmHg): 0.352

C1=CCOC1
boiling point: 66.5 °C | log10 vapour pressure (mmHg): 2.2

NC(=O)CI
melting point: 94.5 °C | ready biodegradability: not readily biodegradable

CN(C)c1ccc(C(O)c2ccc(N(C)C)cc2)cc1
melting point: 101 °C

Nc1cccc(-n2ccccc2=O)c1
melting point: 183 °C

CCCCn1c2ccccc2c2ccccc21
melting point: 58 °C

C=C(C)C1CC=C(C)C(O)C1 (stereo not drawn)
boiling point: 228 °C

CC(C)CC(C)(C#N)N=NC(C)(C#N)CC(C)C (stereo not drawn)
ready biodegradability: not readily biodegradable

CN(C)CCc1ccc(O)cc1
melting point: 118 °C

CN1CCC(O)CC1
boiling point: 200 °C | melting point: 29 °C

Clc1cc2oc3c(Cl)c(Cl)c(Cl)c(Cl)c3c2cc1Cl
log10 Koa: 10.8 | log10 BCF: 3.9

Nc1ccnc2ccccc12
melting point: 155 °C

CCCCS(=O)CCCC
melting point: 32.6 °C

CCCCCCCCn1sccc1=O
log10 vapour pressure (mmHg): -4.43

C[C@H](O)[C@H](O)[C@@H](O)[C@@H](O)C=O
melting point: 135 °C

O[C@@H]1[C@@H](O)[C@@H]2OC[C@@H](O2)[C@H]1O
log10 vapour pressure (mmHg): -7.12 | melting point: 183 °C

O=[N+]([O-])c1ccc(O)cc1O
melting point: 122 °C

O=Cc1ccc(CO)o1
melting point: 31.5 °C

CCCC(=O)OCC(C)C
boiling point: 157 °C

BrCCOc1ccccc1
melting point: 39 °C

O=C(Cl)c1ccc(Cl)c(Cl)c1
boiling point: 242 °C | melting point: 25 °C

CC1=C(C)C2CCC1C2
boiling point: 140 °C

C#CC(C)(C)NC(=O)c1ccc(C(C)C)cc1
log10 Koc (L/kg): 2.17

CC(C)(C)N(NC(=O)c1ccccc1)C(=O)c1ccccc1I
melting point: 188 °C

CCCCCCCCCCCCCCCCCCCC(=O)OC
melting point: 54.5 °C

CC(=O)c1ccc(O[C@@H]2O[C@H](CO)[C@@H](O)[C@H](O)[C@H]2O)cc1
melting point: 196 °C

COc1cccc(NC(=O)N(C)C)c1
log10 Koc (L/kg): 1.72

C=CCc1ccc(OC=O)c(OC)c1
boiling point: 270 °C

Cc1ccc(S(=O)(=O)NC(=O)NN2CCCCCC2)cc1
melting point: 172 °C

Nc1ccc(N)nc1
melting point: 110 °C | ready biodegradability: readily biodegradable

COC=O
boiling point: 31.7 °C | log10 Henry constant (atm·m³/mol): -3.65 | log10 Koa: 1.75 | log10 vapour pressure (mmHg): 2.77 | melting point: -99 °C

COc1cccc(C(N)=O)c1
melting point: 134 °C

C#CC(C)(O)C(C)C (stereo not drawn)
boiling point: 134 °C

N#CCCN(CCC#N)c1ccc(N=Nc2c(Cl)cc([N+](=O)[O-])cc2Cl)cc1
ready biodegradability: not readily biodegradable

CC(C)=CC1C(C(=O)OCN2C(=O)C3=C(CCCC3)C2=O)C1(C)C (stereo not drawn)
melting point: 69 °C | ready biodegradability: not readily biodegradable

Nc1c(F)c(F)c(F)c(F)c1F
boiling point: 153 °C | melting point: 35.5 °C

CC(C)c1ccccc1-c1ccccc1
log10 vapour pressure (mmHg): -3.3

CC(C)=NNc1ccccc1
melting point: 42 °C

Oc1nc(O)nc(O)n1
melting point: 360 °C | ready biodegradability: readily biodegradable | log10 BCF: -0.3

O=S(=O)(O)OCCOc1ccc(Cl)cc1Cl
melting point: 170 °C

Cc1cccc(S)c1
boiling point: 195 °C | log10 vapour pressure (mmHg): -0.257 | melting point: -20 °C

CCCCCCCCCCCCCCCCOC(=O)CCCCCCCCCCCCCCC
melting point: 54 °C

CNC(=O)c1cccnc1
melting point: 104 °C

OCC#CCO
boiling point: 238 °C | log10 vapour pressure (mmHg): -3.25 | melting point: 50 °C

CN(C)c1ccc(N)cc1
boiling point: 263 °C | melting point: 53 °C

Cc1ccc2cc3ccc4ccccc4c3cc2c1
melting point: 183 °C

O=C(O)COc1nc(Cl)c(Cl)cc1Cl
log10 Koc (L/kg): 1.67 | log10 vapour pressure (mmHg): -5.9 | melting point: 149 °C

COc1ccc([N+](=O)[O-])cc1
boiling point: 274 °C | melting point: 54 °C | ready biodegradability: not readily biodegradable | log10 BCF: 1.08 | log10 biotransformation half-life (days): -0.95

Fc1ccccc1I
boiling point: 189 °C | melting point: -41.5 °C

CC(=O)c1ccc(N)cc1
boiling point: 294 °C | ready biodegradability: not readily biodegradable

CCOC(C)OCC
boiling point: 102 °C | log10 vapour pressure (mmHg): 1.44 | melting point: -100 °C

O=c1c(-c2ccccc2)c1-c1ccccc1
melting point: 119 °C

C=COC(=O)CCC
melting point: 117 °C

CC(=O)C(N=Nc1ccc(-c2ccc(N=NC(C(C)=O)C(=O)Nc3ccccc3)c(Cl)c2)cc1Cl)C(=O)Nc1ccccc1 (stereo not drawn)
ready biodegradability: not readily biodegradable

C=CC[C@]1(O)CC[C@H]2[C@@H]3CCC4=CCCC[C@@H]4[C@H]3CC[C@@]21C
melting point: 80 °C

Brc1cc(Br)c(Oc2c(Br)cc(Br)c(Br)c2Br)cc1Br
logP: 8.27 | log10 biotransformation half-life (days): 1.65

CCCCOC(=O)CCC
boiling point: 166 °C | log10 vapour pressure (mmHg): 0.258 | melting point: -91.5 °C

O=C(O)/C=C/Cl
melting point: 82 °C

Nc1c(Cl)ccc(Cl)c1C(=O)O
melting point: 155 °C

c1ccsc1
boiling point: 84 °C | log10 Henry constant (atm·m³/mol): -2.64 | log10 vapour pressure (mmHg): 1.9 | melting point: -39.4 °C | ready biodegradability: not readily biodegradable | log10 BCF: 0.95 | log10 biotransformation half-life (days): -0.82

CC1C=CCC2C(=O)OC(=O)C12 (stereo not drawn)
ready biodegradability: not readily biodegradable

Oc1c(O)c(Br)c(Br)c(Br)c1Br
melting point: 191 °C

NC(=O)c1ccccc1[N+](=O)[O-]
boiling point: 317 °C | log10 Koc (L/kg): 1.45 | melting point: 177 °C

BrCBr
boiling point: 97 °C | log10 Henry constant (atm·m³/mol): -3.09 | log10 Koa: 3.07 | log10 vapour pressure (mmHg): 1.65 | melting point: -52.5 °C

COc1ccccc1OCCNCC(O)COc1cccc2[nH]c3ccccc3c12 (stereo not drawn)
melting point: 114 °C

CCc1ccc(C)nc1
boiling point: 178 °C | log10 vapour pressure (mmHg): 0.155 | melting point: -70.9 °C

C=CC[Si](C)(C)Cl
boiling point: 111 °C

COc1ccc(C#N)cc1
boiling point: 256 °C | melting point: 61.5 °C

CCc1cccc(C)c1N(C(=O)CCl)[C@@H](C)COC
boiling point: 282 °C

O=C1c2ccc(O)cc2C(=O)c2cc(O)ccc21
melting point: 354 °C
